From patent publication US11352350B2, “IRAK degraders and uses thereof” (Kymera Therapeutics, Inc., priority 2018, dated 2022)
Like-named read-outs stand apart in the source and are kept apart here.

Columns and labels:
U2932 = U2932 viability, CTG; assay type: cell-based
OCI-LY10 [1] = test: CTG Cell Viability Assay - OCI-LY10; assay type: cell-based, human; details: OCI-LY10, 4 days, read-out: CTG Cell Viability Assay - OCI-LY10: Average external-IC50
Outline: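 OCI-LY10 cells exposed to 9-dose, 1:3 dilutions from 10 μM top (0.2% DMSO) for 4 days at 37° C, 5% CO2. Viability by CellTiter-Glo luminescence; IC50 from three-parameter logistic fit.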

IRAK4 [2] = molecular target: T1, IRAK4 (Homo sapiens (Human), UniProt Q9NWZ3); test: IRAK4 degradation in OCI-LY10 tumor xenograft; assay type: in vivo; details: PO, BID (FIG. 18)
T1 sequence (Q9NWZ3 whole entry): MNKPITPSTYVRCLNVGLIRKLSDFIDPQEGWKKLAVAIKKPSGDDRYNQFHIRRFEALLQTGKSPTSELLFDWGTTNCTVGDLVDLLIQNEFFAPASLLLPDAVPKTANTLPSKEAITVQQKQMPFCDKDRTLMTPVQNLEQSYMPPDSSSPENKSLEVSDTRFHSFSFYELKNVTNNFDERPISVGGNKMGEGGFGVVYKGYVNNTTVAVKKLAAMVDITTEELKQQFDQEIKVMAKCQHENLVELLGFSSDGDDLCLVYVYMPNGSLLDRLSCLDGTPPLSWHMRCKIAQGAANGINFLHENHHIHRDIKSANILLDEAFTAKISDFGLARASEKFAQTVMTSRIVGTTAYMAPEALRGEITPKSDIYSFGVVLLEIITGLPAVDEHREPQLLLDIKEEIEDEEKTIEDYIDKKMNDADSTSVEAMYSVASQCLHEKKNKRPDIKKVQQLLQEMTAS

OCI-LY10 [3] = test: OCI-LY10 viability, CTG; assay type: cell-based
OCI-LY19 = OCI-LY19 viability, CTG; assay type: cell-based
SU-DHL2 = SU-DHL2 viability, CTG; assay type: cell-based
IRAK4 [4] = molecular target: T1, IRAK4; test: hPBMC IRAK4 degradation flow assay; assay type: cell-based; details: hPBMC monocyte, 20 hr, flow assay; read-out: IRAK4 degradation in hPBMC monocyte at 20 hr: Average external Abs DC50
Outline: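 Thawed human PBMCs treated with 10-point, 5-fold compound dilutions (0.1% DMSO) at 37° C. for 20 hours or 4 hours. IRAK4 measured by flow MFI in CD14+ monocytes and CD14− lymphocytes, normalized to DMSO and 10 μM 20-hour control; DC50 and max degradation from 4-parameter logistic fit.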

IL-6 = IL-6 secretion in hPBMC using R848 stimulation; assay type: cell-based, human
IRAK4 [5] = molecular target: T1, IRAK4; test: IRAK4 MSD degradation in OCI-LY10; assay type: cell-based; details: MSD
Outline: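 OCI-LY10 cells treated with 8-point 1:3 dilutions (top 1 to 10 μM final) for 4 to 24 h at 37° C. Lysate IRAK4 measured by MSD sandwich immunoassay (2H9 capture, Y279 detection, SULFO-TAG anti-rabbit). DC50 from three-parameter logistic fit.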

OCI-LY10 tumor xenograft = test: OCI-LY10 tumor xenograft, tumor volume; assay type: in vivo; details: PO, BID, 150 mg/kg (FIG. 18)
SU-DHL6 = SU-DHL6 viability, CTG; assay type: cell-based
IRAK4 [6] = molecular target: T1, IRAK4; test: IRAK4 degradation in OCI-LY10 (DC50); assay type: cell-based
IRAK4 [7] = molecular target: T1, IRAK4; test: IRAK4 WB degradation (DC50); assay type: cell-based
C57BL/6 mice = test: IMQ (imiquimod) induced psoriasis; assay type: in vivo, mouse; details: oral dosing; FIG. 36
Description: A model of psoriasis includes the effects of degrader on epidermal hyperplasia development induced by daily topical application of 5% imiquimod in C57BL/6 mice. On each of Days 0 to 6, mice had 5% imiquimod cream administered topically on left ear and shaved back skin. Control mice (no imiquimod group) received control cream without imiquimod. […] The last dosing was on Day 6 for all mice. All dosing was at the same time (+/−1 hour) each day. For the BID groups there was no less than 9 and no more than 15 hours between doses. Readouts were body weight, PASI score, and skin thickness. Body weight was measured 3 times/week, starting on Day −3. Once on each of Days 0, 3, 5, 6, and 7, back and ear thickness was measured with calipers. Each measurement was performed blind, by a person unaware of the group or previous measurement. On Day 7, approximately 24 hours after the last imiquimod application, all mice were euthanized and blood collected via cardiac bleed into EDTA tubes. Plasma was isolated, and frozen. Tissues of interest were removed, weighed, recorded and frozen.

Which IC50 (U2932; MYD88 WT Lines, read-out: U2932 Viability, CTG IC50) does the source give for `Cn1c(=O)n([C@H]2CCC(=O)NC2=O)c2cccc(CCCOC3CCN(CC4CCC(n5cc(NC(=O)c6cnn7ccc(N8CCOCC8)nc67)c(C(F)F)n5)CC4)CC3)c21` (stereo partly drawn) [I-257, N-[3-(difluoromethyl)-1-[4-[[4-[3-[1-[(3S)-2,6-dioxo-3-piperidyl]-3-methyl-2-oxo-benzimidazol-4-yl]propoxy]-1-piperidyl]methyl]cyclohexyl]pyrazol-4-yl]-5-morpholino-pyrazolo[1,5-a]pyrimidine-3-carboxamide] here?
Its IC50 is over 10000 nM.

What about the IC50 (U2932; MYD88 WT, read-out: U2932 CTG IC50) of the same compound?
The IC50 was 10000 nM.

What about the IC50 (OCI-LY10 [1]) of the same compound?
Its IC50 is over 1000 nM.

And the “IRAK4 degradation in OCI-LY10 tumor xenograft” value (IRAK4 [2])?
Its value is 90%.

What about the IC50 (OCI-LY10 [3]; MYD88 MUT, read-out: OCI-LY10 CTG IC50) of the same compound?
The IC50 was 1200 nM.

And the IC50 (OCI-LY10 [3]; MYD88 Mutant Lines, read-out: OCI-LY10 Viability, CTG IC50)?
The IC50 was 1200 nM.

What about the IC50 (OCI-LY19; MYD88 WT Lines, read-out: OCI-LY19 Viability, CTG IC50) of the same compound?
The IC50 was 4700 nM.

And the IC50 (OCI-LY19; MYD88 WT, read-out: OCI-LY19 CTG IC50)?
Its IC50 is 4700 nM.

What about the IC50 (SU-DHL2; MYD88 MUT, read-out: SU-DHL2 CTG IC50) of the same compound?
The IC50 was 6900 nM.

What about the IC50 (SU-DHL2; MYD88 Mutant Lines, read-out: SU-DHL2 Viability, CTG IC50) of the same compound?
The IC50 was 6900 nM.

And the DC50 (IRAK4 [4])?
The DC50 was under 10 nM.

What about the IC50 (IL-6; hPBMC, R848 as stim, t = 20 h) of the same compound?
The IC50 was under 1 nM.

And the DC50 (IRAK4 [5]; OCI-LY10, 4 hrs, read-out: IRAK4 MSD degradation in OCI-LY10 at 4 hrs: Average external-Abs DC50)?
Its DC50 is under 10 nM.

What about the DC50 (IRAK4 [5]; OCI-LY10, 24 hrs, read-out: IRAK4 MSD degradation in OCI-LY10 at 24 hrs: Average external-Abs DC50) of the same compound?
Its DC50 is under 10 nM.

And the “Regression of OCI-LY10 tumor xenograft” value (OCI-LY10 tumor xenograft)?
The value was “without regression”.

What about the “Regression of OCI-LY10 tumor xenograft” value (OCI-LY10 tumor xenograft; listed as 1-257) of the same compound?
Its value is “without causing regression”.

What about the IC50 (SU-DHL6; MYD88 WT Lines, read-out: SU-DHL6 Viability, CTG IC50) of the same compound?
The IC50 was 5600 nM.

What about the IC50 (SU-DHL6; MYD88 WT, read-out: SU-DHL6 CTG IC50) of the same compound?
Its IC50 is 5600 nM.

And the DC50 (IRAK4 [6]; read-out: IRAK4 Degradation in OCI-LY10, DC50)?
Its DC50 is 5 nM.

And the DC50 (IRAK4 [6]; read-out: IRAK4 OCI-LY10 DC50)?
Its DC50 is 5 nM.

What about the DC50 (IRAK4 [7]) of the same compound?
Its DC50 is 3 nM.

With `Cn1c(=O)n(C2CCC(=O)NC2=O)c2cccc(C#CCOC3CCN(C[C@H]4CC[C@H](n5cc(NC(=O)c6cnn7ccc(N8C[C@H]9C[C@@H]8CO9)nc67)c(C(F)F)n5)CC4)CC3)c21` (stereo partly drawn) [I-417, N-[3-(difluoromethyl)-1-[4-[[4-[3-[1-(2,6-dioxo-3-piperidyl)-3-methyl-2-oxo-benzimidazol-4-yl]prop-2-ynoxy]-1-piperidyl]methyl]cyclohexyl]pyrazol-4-yl]-5-[(1R,4R)-2-oxa-5-azabicyclo[2.2.1]heptan-5-yl]pyrazolo[1,5-a]pyrimidine-3-carboxamide] as the compound, how does the IC50 (OCI-LY10 [1]; Homo sapiens, 96 h) read?
Its IC50 is over 1000 nM.

What about the IC50 (IL-6; Homo sapiens, 20 h, read-out: IL-6 Secretion in hPBMC, R848 as stim, t = 20 h: IC50) of the same compound?
Its IC50 is under 1 nM.

And the “skin thickening in mice treated with topical imiquimod” value (C57BL/6 mice)?
Its value is “significantly reduced skin thickening”.
